# Laboratory results from ChEMBL document CHEMBL1201862, “PubChem BioAssay data set” (2004).
#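 48-hour exposure; five concentrations; linearly interpolated endpoints. GI50 marks 50% less growth.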 Activity calls are given as the source filed them. No stated cut-off is given here; in the data, active = GI50 up to about 1.1 µM and inactive = higher.
# Experiments:
# Assay in all cases: inhibition of tumour cell growth, NCI panel, 48 h
# 786-0 = system: 786-0
# A498 = system: A498
# A549 = system: A549
# ACHN = system: ACHN
# CAKI-1 = system: CAKI-1
# CCRF-CEM = system: CCRF-CEM
# COLO 205 = system: COLO 205
# DU-145 = system: DU-145
# EKVX = system: EKVX
# HCC 2998 = system: HCC 2998
# HCT-116 = system: HCT-116
# HCT-15 = system: HCT-15
# HL-60 = system: HL-60
# HOP-62 = system: HOP-62
# HOP-92 = system: HOP-92
# HT-29 = system: HT-29
# Hs-578T = system: Hs-578T
# IGROV-1 = system: IGROV-1
# K562 = system: K562
# KM12 = system: KM12
# LOX IMVI = system: LOX IMVI
# M14 = system: M14
# MCF7 = system: MCF7
# MDA-MB-231 = system: MDA-MB-231
# MDA-MB-435 = system: MDA-MB-435
# MDA-N = system: MDA-N
# MOLT-4 = system: MOLT-4
# Malme-3M = system: Malme-3M
# NCI-H226 = system: NCI-H226
# NCI-H23 = system: NCI-H23
# NCI-H460 = system: NCI-H460
# NCI-H522 = system: NCI-H522
# NCI/ADR-RES = system: NCI/ADR-RES
# OVCAR-3 = system: OVCAR-3
# OVCAR-4 = system: OVCAR-4
# OVCAR-5 = system: OVCAR-5
# OVCAR-8 = system: OVCAR-8
# PC-3 = system: PC-3
# RPMI-8226 = system: RPMI-8226
# RXF 393 = system: RXF 393
# SF-268 = system: SF-268
# SF-295 = system: SF-295
# SF-539 = system: SF-539
# SK-MEL-28 = system: SK-MEL-28
# SK-MEL-2 = system: SK-MEL-2
# SK-MEL-5 = system: SK-MEL-5
# SK-OV-3 = system: SK-OV-3
# SN12C = system: SN12C
# SNB-19 = system: SNB-19
# SNB-75 = system: SNB-75
# SR = system: SR
# T47D = system: T47D
# TK-10 = system: TK-10
# U-251 = system: U-251
# UACC-257 = system: UACC-257
# UACC-62 = system: UACC-62
# UO-31 = system: UO-31
# BT-549 = system: BT-549
# SW-620 = system: SW-620
smiles,measurement,setting,value
O=[N+]([O-])C(/C=C(\Cl)[N+](=O)[O-])=C(N1CCOCC1)N1CCOCC1,GI50,786-0,16.7 µM (inactive)
same,GI50,A498,27 µM (inactive)
same,GI50,A549,19.4 µM (inactive)
same,GI50,ACHN,41.7 µM (inactive)
same,GI50,CAKI-1,27.4 µM (inactive)
same,GI50,CCRF-CEM,56.9 µM (inactive)
same,GI50,COLO 205,19.8 µM (inactive)
same,GI50,DU-145,> 100 µM (inactive)
same,GI50,EKVX,> 100 µM (inactive)
same,GI50,HCC 2998,24 µM (inactive)
same,GI50,HCT-116,25.3 µM (inactive)
same,GI50,HCT-15,> 100 µM
same,GI50,HL-60,18.4 µM (inactive)
same,GI50,HOP-62,20.9 µM (inactive)
same,GI50,HOP-92,25.4 µM (inactive)
same,GI50,HT-29,33.4 µM (inactive)
same,GI50,Hs-578T,0.232 µM (active)
same,GI50,IGROV-1,> 100 µM (inactive)
same,GI50,K562,18.3 µM (inactive)
same,GI50,KM12,> 100 µM (inactive)
same,GI50,LOX IMVI,85.9 µM (inactive)
same,GI50,M14,> 100 µM (inactive)
same,GI50,MCF7,17.6 µM (inactive)
same,GI50,MDA-MB-231,23.3 µM (inactive)
same,GI50,MDA-MB-435,> 100 µM (inactive)
same,GI50,MDA-N,> 100 µM (inactive)
same,GI50,MOLT-4,50.2 µM (inactive)
same,GI50,Malme-3M,27.2 µM (inactive)
same,GI50,NCI-H226,> 100 µM (inactive)
same,GI50,NCI-H23,> 100 µM (inactive)
same,GI50,NCI-H460,> 100 µM (inactive)
same,GI50,NCI-H522,41.8 µM (inactive)
same,GI50,NCI/ADR-RES,> 100 µM (inactive)
same,GI50,OVCAR-3,19.7 µM (inactive)
same,GI50,OVCAR-4,25.9 µM (inactive)
same,GI50,OVCAR-5,21.2 µM (inactive)
same,GI50,OVCAR-8,> 100 µM (inactive)
same,GI50,PC-3,> 100 µM (inactive)
same,GI50,RPMI-8226,26.5 µM (inactive)
same,GI50,RXF 393,31.5 µM (inactive)
same,GI50,SF-268,35.5 µM (inactive)
same,GI50,SF-295,> 100 µM (inactive)
same,GI50,SF-539,22.3 µM (inactive)
same,GI50,SK-MEL-28,> 100 µM (inactive)
same,GI50,SK-MEL-2,> 100 µM (inactive)
same,GI50,SK-MEL-5,> 100 µM (inactive)
same,GI50,SK-OV-3,> 100 µM (inactive)
same,GI50,SN12C,> 100 µM (inactive)
same,GI50,SNB-19,> 100 µM (inactive)
same,GI50,SNB-75,50.5 µM (inactive)
same,GI50,SR,39.6 µM (inactive)
same,GI50,T47D,24.5 µM (inactive)
same,GI50,TK-10,47 µM (inactive)
same,GI50,U-251,24.6 µM (inactive)
same,GI50,UACC-257,> 100 µM (inactive)
same,GI50,UACC-62,85.7 µM (inactive)
same,GI50,UO-31,36.6 µM (inactive)
COc1cc2c[n+](C)c3c4cc(OC)c(OC)cc4ccc3c2cc1OC,GI50,786-0,> 100 µM (inactive)
same,GI50,A549,> 100 µM (inactive)
same,GI50,ACHN,> 100 µM (inactive)
same,GI50,BT-549,32.1 µM (inactive)
same,GI50,CAKI-1,> 100 µM (inactive)
same,GI50,CCRF-CEM,35.3 µM (inactive)
same,GI50,COLO 205,15.8 µM (inactive)
same,GI50,DU-145,25.4 µM (inactive)
same,GI50,EKVX,> 100 µM (inactive)
same,GI50,HCC 2998,> 100 µM (inactive)
same,GI50,HCT-116,> 100 µM (inactive)
same,GI50,HCT-15,> 100 µM
same,GI50,K562,26.1 µM (inactive)
same,GI50,M14,> 100 µM (inactive)
same,GI50,MDA-MB-435,> 100 µM (inactive)
same,GI50,OVCAR-3,29.1 µM (inactive)
same,GI50,OVCAR-4,55.3 µM (inactive)
same,GI50,PC-3,72.9 µM (inactive)
same,GI50,RPMI-8226,48 µM (inactive)
same,GI50,SF-295,> 100 µM (inactive)
same,GI50,SK-MEL-28,> 100 µM (inactive)
same,GI50,SK-MEL-2,> 100 µM (inactive)
same,GI50,SK-OV-3,> 100 µM (inactive)
same,GI50,SW-620,91.2 µM (inactive)
same,GI50,UACC-257,> 100 µM (inactive)
same,GI50,UACC-62,> 100 µM (inactive)
same,GI50,UO-31,> 100 µM (inactive)
COC1=CC(=O)C(C2(OC(C)C)OC(=O)C(Cl)=C2Cl)=CC1=O (stereo not drawn),GI50,786-0,28.9 µM (inactive)
same,GI50,A498,> 100 µM (inactive)
same,GI50,A549,> 100 µM (inactive)
same,GI50,ACHN,51.4 µM (inactive)
same,GI50,CAKI-1,> 100 µM (inactive)
same,GI50,CCRF-CEM,82.4 µM (inactive)
same,GI50,COLO 205,> 100 µM (inactive)
same,GI50,DU-145,> 100 µM (inactive)
same,GI50,EKVX,> 100 µM (inactive)
same,GI50,HCC 2998,> 100 µM (inactive)
same,GI50,HCT-116,> 100 µM (inactive)
same,GI50,HCT-15,> 100 µM
same,GI50,HL-60,< 0.01 µM (active)
same,GI50,HOP-62,> 100 µM (inactive)
same,GI50,HOP-92,> 100 µM (inactive)
same,GI50,HT-29,> 100 µM (inactive)
same,GI50,Hs-578T,> 100 µM (inactive)
same,GI50,K562,< 0.01 µM (active)
same,GI50,KM12,> 100 µM (inactive)
same,GI50,LOX IMVI,64.1 µM (inactive)
same,GI50,M14,> 100 µM (inactive)
same,GI50,MCF7,> 100 µM (inactive)
same,GI50,MDA-MB-231,> 100 µM (inactive)
same,GI50,MDA-MB-435,41.3 µM (inactive)
same,GI50,MDA-N,49.1 µM (inactive)
same,GI50,Malme-3M,> 100 µM (inactive)
same,GI50,NCI-H226,> 100 µM (inactive)
same,GI50,NCI-H23,> 100 µM (inactive)
same,GI50,NCI-H460,> 100 µM (inactive)
same,GI50,NCI-H522,25.8 µM (inactive)
same,GI50,NCI/ADR-RES,> 100 µM (inactive)
same,GI50,OVCAR-3,> 100 µM (inactive)
same,GI50,OVCAR-5,> 100 µM (inactive)
same,GI50,OVCAR-8,24.9 µM (inactive)
same,GI50,PC-3,> 100 µM (inactive)
same,GI50,RPMI-8226,> 100 µM (inactive)
same,GI50,RXF 393,> 100 µM (inactive)
same,GI50,SF-268,> 100 µM (inactive)
same,GI50,SF-295,> 100 µM (inactive)
same,GI50,SF-539,> 100 µM (inactive)
same,GI50,SK-MEL-28,> 100 µM (inactive)
same,GI50,SK-MEL-2,29.4 µM (inactive)
same,GI50,SK-MEL-5,> 100 µM (inactive)
same,GI50,SK-OV-3,> 100 µM (inactive)
same,GI50,SN12C,> 100 µM (inactive)
same,GI50,SNB-19,> 100 µM (inactive)
same,GI50,SNB-75,> 100 µM (inactive)
same,GI50,SR,0.0115 µM (active)
same,GI50,SW-620,> 100 µM (inactive)
same,GI50,T47D,> 100 µM (inactive)
same,GI50,TK-10,> 100 µM (inactive)
same,GI50,UACC-257,> 100 µM (inactive)
same,GI50,UACC-62,> 100 µM (inactive)
same,GI50,UO-31,74.5 µM (inactive)
